Reference: US12485080B2, “Cosmetic compositions” (Mary Kay Inc., priority 2011, dated 2025)

Columns and labels:
hyaluronic acid = assay: Hyaluronic acid production/secretion in cultured human dermal fibroblasts; type: cell-based; settings: compared to an untreated control
Protocol: In this study, tetradecyl aminobutyroylvalylamino butyric urea trifluoroacetate (SYN-HYCAN™ from Pentapharm/DSM) was replaced with Alpinia galanga leaf extract (HYALUFIX™ GL from BASF). Therefore, the combination of tripeptide-1 (KOLLAREN® from Unipex/Lucas Meyer), Centella asiatica stem cells (CENTELLA ASIATIC STEMS G™ from Ricerche Biotecnologiche), and Alpinia galanga leaf extract (HYALUFIX™ GL from BASF) was tested on skin at various levels in various dermatologically acceptable vehicles. The following includes data concerning these tests. Further, an in vitro assay was performed on Alpinia galanga leaf extract using cultured human dermal fibroblasts.

collagen I = assay: Immunofluorescent staining of cultured human fibroblasts for dermal matrix proteins: collagen I; type: cell-based; settings: immunofluorescent antibodies, compared to untreated controls
collagen III = assay: Immunofluorescent staining of cultured human fibroblasts for dermal matrix proteins: collagen III; type: cell-based; settings: immunofluorescent antibodies, compared to untreated controls
elastin fibers = assay: Immunofluorescence study of elastin fibers; type: cell-based, human; settings: immunofluorescence studies
fibronectin = assay: Secretion of fibronectin; type: cell-based; settings: compared to untreated controls
laminin = assay: Secretion of laminin; type: cell-based; settings: compared to untreated controls

Row | Substance | increase in production of hyaluronic acid secretion (hyaluronic acid) | increase in collagen I (collagen I) | increase in collagen III (collagen III) | increase in elastin fibers (elastin fibers) | increase in secretion of fibronectin (fibronectin) | increase in secretion of laminin (laminin)
1 | Tetradecyl aminobutyroylvalylamino butyric urea trifluoroacetate | 64.2% | – | – | – | – | –
2 | Tripeptide-1 | 118% | 305% | 105% | 15% | 105% | 85%
